Assay results published in PMC5775428, “Towards an experimental classification system for membrane active peptides” (Scientific Reports, 2018).
Like-named read-outs stand apart in the source and are kept apart here.

Legend:
[1] = cited from earlier work
[2] = cited from earlier work; remark: listed apart in the source
[3] = cited from earlier work; remark: listed apart in the source
[4] = cited from earlier work; remark: listed apart in the source
[5] = cited from earlier work; remark: listed apart in the source
[6] = cited from earlier work; remark: listed apart in the source
[7] = cited from earlier work; remark: listed apart in the source
[8] = cited from earlier work; remark: listed apart in the source
[9] = cited from earlier work; remark: listed apart in the source
[10] = cited from earlier work; remark: listed apart in the source
Bacillus subtilis = conditions: Bacillus subtilis; for Minimum inhibitory concentration, Average: average of triplicates
Method in brief: (§1)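 Peptides were serially diluted from 256 down to 0.5 μM and incubated with the bacterial strains according to CLSI M7-A10. Wells were then inspected by optical microscopy, and MIC assigned where no cells appeared.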

Cryptococcus neoformans = conditions: Cryptococcus neoformans; for Minimum inhibitory concentration, Average: average of triplicates
Method in brief: (§2)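 MICs determined per CLSI M7-A10 (bacteria) and M27-A3 (yeasts) protocols, peptides tested at 0.5 to 256 μM. MIC taken as the lowest concentration with no cells seen by optical microscopy; three biological repeats with 2 technical replicates each.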

Erwinia carotovora = conditions: Erwinia carotovora; for Minimum inhibitory concentration, Average: average of triplicates
Method in brief: as §1

Pseudomonas aeruginosa = conditions: Pseudomonas aeruginosa; for Minimum inhibitory concentration, Average: average of triplicates
Method in brief: as §1

Escherichia coli = conditions: Escherichia coli; for Minimum inhibitory concentration, Average: average of triplicates
Method in brief: as §1

Bacillus cereus = conditions: Bacillus cereus; for Minimum inhibitory concentration, Average: average of triplicates
Method in brief: as §1

[11] = test system: Pseudomonas syringae pv. tabaci; conditions: Pseudomonas syringae pv. tabaci; for Minimum inhibitory concentration, Average: average of triplicates
Method in brief: as §1

Xanthomonas campestris = conditions: for Minimum inhibitory concentration, Average: average of triplicates
Method in brief: as §1

Staphylococcus aureus = conditions: Staphylococcus aureus; for Minimum inhibitory concentration, Average: average of triplicates
Method in brief: as §1

Candida albicans = conditions: Candida albicans; for Minimum inhibitory concentration, Average: average of triplicates
Method in brief: as §2

[12] = CLSI M27-A3, 0.5 to 256 μM tested, triplicate 1, also published in ref 7

Q: What does the source list for Penetratin?
A: H sharp component, 2:1 DMPC:DMPG LUVs [1]: 3360 kcal/mol; Tm broad component, 2:1 DMPC:DMPG LUVs [2]: 26.6 °C; Tm sharp component, 2:1 DMPC:DMPG LUVs [3]: 24.5 °C; Hv sharp component, DMPC LUVs [4]: 1.01e+06; Hv broad component, DMPC LUVs [5]: 295000; H broad component, 2:1 DMPC:DMPG LUVs [6]: 2560 kcal/mol; Tm sharp component, DMPC LUVs [7]: 24.2 °C; Hv broad component, 2:1 DMPC:DMPG LUVs [8]: 116000; Tm broad component, DMPC LUVs [9]: 23.5 °C; H broad component, DMPC LUVs [10]: 2890 kcal/mol

Q: Which results are given for Syphaxin?
A: H sharp component, 2:1 DMPC:DMPG LUVs [1]: 197 kcal/mol; Tm broad component, 2:1 DMPC:DMPG LUVs [2]: 25.4 °C; Tm sharp component, 2:1 DMPC:DMPG LUVs [3]: 22.8 °C; Hv sharp component, DMPC LUVs [4]: 383000; Hv broad component, DMPC LUVs [5]: 120000; H broad component, 2:1 DMPC:DMPG LUVs [6]: 3240 kcal/mol; Tm sharp component, DMPC LUVs [7]: 21.9 °C; Hv broad component, 2:1 DMPC:DMPG LUVs [8]: 101000; Tm broad component, DMPC LUVs [9]: 25.4 °C; H broad component, DMPC LUVs [10]: 2260 kcal/mol

Q: With GFKLGRKLVKVFKWII [Gr01] as the substance, how does the Minimum inhibitory concentration (Bacillus subtilis; CLSI M7-A10, triplicate 1) read?
A: 1 µM

Q: What about the “Minimum inhibitory concentration, Average” value (Bacillus subtilis) of the same substance?
A: 1.0 µM

Q: What about the Minimum inhibitory concentration (Bacillus subtilis; triplicate 2) of the same substance?
A: 1 µM

Q: What about the Minimum inhibitory concentration (Bacillus subtilis; triplicate 3) of the same substance?
A: 1 µM

Q: What about the Minimum inhibitory concentration (Cryptococcus neoformans; CLSI M27-A3, triplicate 1) of the same substance?
A: 1 µM

Q: What about the “Minimum inhibitory concentration, Average” value (Cryptococcus neoformans) of the same substance?
A: 1.0 µM

Q: What about the Minimum inhibitory concentration (Cryptococcus neoformans; triplicate 2) of the same substance?
A: 1 µM

Q: What about the Minimum inhibitory concentration (Cryptococcus neoformans; triplicate 3) of the same substance?
A: 1 µM

Q: And the Minimum inhibitory concentration (Erwinia carotovora; CLSI M7-A10, triplicate 1)?
A: 0.5 µM

Q: What about the “Minimum inhibitory concentration, Average” value (Erwinia carotovora) of the same substance?
A: 0.5 µM

Q: And the Minimum inhibitory concentration (Erwinia carotovora; triplicate 2)?
A: 0.5 µM

Q: And the Minimum inhibitory concentration (Erwinia carotovora; triplicate 3)?
A: 0.5 µM

Q: And the Minimum inhibitory concentration (Pseudomonas aeruginosa; CLSI M7-A10, triplicate 1)?
A: 2 µM

Q: And the “Minimum inhibitory concentration, Average” value (Pseudomonas aeruginosa)?
A: 3.3 µM

Q: What about the Minimum inhibitory concentration (Pseudomonas aeruginosa; triplicate 2) of the same substance?
A: 4 µM

Q: What about the Minimum inhibitory concentration (Pseudomonas aeruginosa; triplicate 3) of the same substance?
A: 4 µM

Q: And the Minimum inhibitory concentration (Escherichia coli; CLSI M7-A10, triplicate 1)?
A: 0.5 µM

Q: And the “Minimum inhibitory concentration, Average” value (Escherichia coli)?
A: 0.5 µM

Q: And the Minimum inhibitory concentration (Escherichia coli; triplicate 2)?
A: 0.5 µM

Q: What about the Minimum inhibitory concentration (Escherichia coli; triplicate 3) of the same substance?
A: 0.5 µM

Q: What about the Minimum inhibitory concentration (Bacillus cereus; CLSI M7-A10, triplicate 1) of the same substance?
A: 1 µM

Q: And the “Minimum inhibitory concentration, Average” value (Bacillus cereus)?
A: 1.0 µM

Q: What about the Minimum inhibitory concentration (Bacillus cereus; triplicate 2) of the same substance?
A: 1 µM

Q: And the Minimum inhibitory concentration (Bacillus cereus; triplicate 3)?
A: 1 µM

Q: And the Minimum inhibitory concentration ([11]; CLSI M7-A10, triplicate 1)?
A: 1 µM

Q: And the “Minimum inhibitory concentration, Average” value [11]?
A: 1.0 µM

Q: And the Minimum inhibitory concentration ([11]; triplicate 2)?
A: 1 µM

Q: And the Minimum inhibitory concentration ([11]; triplicate 3)?
A: 1 µM

Q: And the Minimum inhibitory concentration (Xanthomonas campestris; CLSI M7-A10, triplicate 1)?
A: 1 µM

Q: And the “Minimum inhibitory concentration, Average” value (Xanthomonas campestris)?
A: 1.0 µM

Q: What about the Minimum inhibitory concentration (Xanthomonas campestris; triplicate 2) of the same substance?
A: 1 µM

Q: And the Minimum inhibitory concentration (Xanthomonas campestris; triplicate 3)?
A: 1 µM

Q: What about the Minimum inhibitory concentration (Staphylococcus aureus; CLSI M7-A10, triplicate 1) of the same substance?
A: 0.5 µM

Q: What about the “Minimum inhibitory concentration, Average” value (Staphylococcus aureus) of the same substance?
A: 0.8 µM

Q: What about the Minimum inhibitory concentration (Staphylococcus aureus; triplicate 2) of the same substance?
A: 1 µM

Q: What about the Minimum inhibitory concentration (Staphylococcus aureus; triplicate 3) of the same substance?
A: 1 µM

Q: And the Minimum inhibitory concentration (Candida albicans; [12])?
A: 1 µM

Q: And the “Minimum inhibitory concentration, Average” value (Candida albicans)?
A: 1.0 µM

Q: And the Minimum inhibitory concentration (Candida albicans; triplicate 2)?
A: 1 µM

Q: What about the Minimum inhibitory concentration (Candida albicans; triplicate 3) of the same substance?
A: 1 µM

Q: Which Minimum inhibitory concentration (Bacillus subtilis; CLSI M7-A10, triplicate 1) does the source give for LHRLVKLVAALLRGYASKVDTH [Tc08] here?
A: 2 µM

Q: What about the “Minimum inhibitory concentration, Average” value (Bacillus subtilis) of the same substance?
A: 2.0 µM

Q: What about the Minimum inhibitory concentration (Bacillus subtilis; triplicate 2) of the same substance?
A: 2 µM

Q: And the Minimum inhibitory concentration (Bacillus subtilis; triplicate 3)?
A: 2 µM

Q: And the Minimum inhibitory concentration (Cryptococcus neoformans; CLSI M27-A3, triplicate 1)?
A: 8 µM

Q: What about the “Minimum inhibitory concentration, Average” value (Cryptococcus neoformans) of the same substance?
A: 8.0 µM

Q: What about the Minimum inhibitory concentration (Cryptococcus neoformans; triplicate 2) of the same substance?
A: 8 µM

Q: What about the Minimum inhibitory concentration (Cryptococcus neoformans; triplicate 3) of the same substance?
A: 8 µM

Q: What about the Minimum inhibitory concentration (Erwinia carotovora; CLSI M7-A10, triplicate 1) of the same substance?
A: 2 µM

Q: What about the “Minimum inhibitory concentration, Average” value (Erwinia carotovora) of the same substance?
A: 3.3 µM

Q: And the Minimum inhibitory concentration (Erwinia carotovora; triplicate 2)?
A: 4 µM

Q: And the Minimum inhibitory concentration (Erwinia carotovora; triplicate 3)?
A: 4 µM

Q: What about the Minimum inhibitory concentration (Pseudomonas aeruginosa; CLSI M7-A10, triplicate 1) of the same substance?
A: 4 µM

Q: What about the “Minimum inhibitory concentration, Average” value (Pseudomonas aeruginosa) of the same substance?
A: 4.0 µM

Q: And the Minimum inhibitory concentration (Pseudomonas aeruginosa; triplicate 2)?
A: 4 µM

Q: And the Minimum inhibitory concentration (Pseudomonas aeruginosa; triplicate 3)?
A: 4 µM

Q: And the Minimum inhibitory concentration (Escherichia coli; CLSI M7-A10, triplicate 1)?
A: 2 µM

Q: And the “Minimum inhibitory concentration, Average” value (Escherichia coli)?
A: 2.0 µM

Q: What about the Minimum inhibitory concentration (Escherichia coli; triplicate 2) of the same substance?
A: 2 µM

Q: And the Minimum inhibitory concentration (Escherichia coli; triplicate 3)?
A: 2 µM

Q: What about the Minimum inhibitory concentration (Bacillus cereus; CLSI M7-A10, triplicate 1) of the same substance?
A: 4 µM

Q: And the “Minimum inhibitory concentration, Average” value (Bacillus cereus)?
A: 6.7 µM

Q: What about the Minimum inhibitory concentration (Bacillus cereus; triplicate 2) of the same substance?
A: 8 µM

Q: And the Minimum inhibitory concentration (Bacillus cereus; triplicate 3)?
A: 8 µM

Q: And the Minimum inhibitory concentration ([11]; CLSI M7-A10, triplicate 1)?
A: 4 µM

Q: What about the “Minimum inhibitory concentration, Average” value [11] of the same substance?
A: 4.0 µM

Q: What about the Minimum inhibitory concentration ([11]; triplicate 2) of the same substance?
A: 4 µM

Q: What about the Minimum inhibitory concentration ([11]; triplicate 3) of the same substance?
A: 4 µM

Q: What about the Minimum inhibitory concentration (Xanthomonas campestris; CLSI M7-A10, triplicate 1) of the same substance?
A: 4 µM

Q: And the “Minimum inhibitory concentration, Average” value (Xanthomonas campestris)?
A: 4.0 µM

Q: And the Minimum inhibitory concentration (Xanthomonas campestris; triplicate 2)?
A: 4 µM

Q: And the Minimum inhibitory concentration (Xanthomonas campestris; triplicate 3)?
A: 4 µM

Q: And the Minimum inhibitory concentration (Staphylococcus aureus; CLSI M7-A10, triplicate 1)?
A: 2 µM

Q: And the “Minimum inhibitory concentration, Average” value (Staphylococcus aureus)?
A: 2.0 µM

Q: And the Minimum inhibitory concentration (Staphylococcus aureus; triplicate 2)?
A: 2 µM

Q: What about the Minimum inhibitory concentration (Staphylococcus aureus; triplicate 3) of the same substance?
A: 2 µM

Q: What about the Minimum inhibitory concentration (Candida albicans; [12]) of the same substance?
A: 4 µM

Q: What about the “Minimum inhibitory concentration, Average” value (Candida albicans) of the same substance?
A: 4.0 µM

Q: And the Minimum inhibitory concentration (Candida albicans; triplicate 2)?
A: 4 µM

Q: And the Minimum inhibitory concentration (Candida albicans; triplicate 3)?
A: 4 µM
